From US9265773B2, “Tetracyclic heterocycle compounds and methods of use thereof for the treatment of viral diseases” (priority 2011, dated 2016) come the findings set out here.

The test system of assay [1] is HCV replicon genotype 1a. The experiment in a line: microbe, parasite or virus in culture. In kind it is cell-based. The conditions noted are these: genotype 1a replicon cells, incubated 96 hours, NS3/4A ELISA readout.
Assay [2] relates to HCV replicon genotype 1b. Kind of assay: microbe, parasite or virus in culture. The class given is cell-based. Conditions: genotype 1b replicon cells, incubated 96 hours, NS3/4A ELISA readout.

`CNC(=O)c1c(-c2ccc(F)cc2)oc2cc(N(C)S(C)(=O)=O)c(-c3ccc4c(c3)-c3[nH]c5ccccc5c3C(c3ccccc3)O4)cc12` (stereo not drawn) [Compound 63, 2-(4-fluorophenyl)-N-methyl-6-(N-methylmethylsulfonamido)-5-(6-phenyl-6,11-dihydrochromeno[4,3-b]indol-2-yl)benzofuran-3-carboxamide]: the IC50 in assay [1] (Hepatitis C virus, 96 h) came out at 92 nM; in assay [2] (Hepatitis C virus, 96 h), 83 nM.

Turning to `CNC(=O)c1c(-c2ccc(F)cc2)oc2cc(N(C)S(C)(=O)=O)c(-c3ccc4c(c3)-c3cc5ccccc5n3CC(O)(C(F)(F)F)CO4)cc12` (stereo not drawn) [Compound 79, 2-(4-fluorophenyl)-5-(7-hydroxy-7-(trifluoromethyl)-7,8-dihydro-6H-benzo[2,3][1,5]oxazocino[5,4-a]indol-2-yl)-N-methyl-6-(N-methylmethylsulfonamido)benzofuran-3-carboxamide], the IC50 in assay [1] (Hepatitis C virus, 96 h) turned out to be 10 nM; in assay [2] (Hepatitis C virus, 96 h) it was 11 nM.

Turning to `CNC(=O)c1c(-c2ccc(F)cc2)oc2cc(N3CCN(C)C3=O)c(-c3ccc4c(n3)-c3cc5c(F)cccc5n3CO4)cc12` [Compound 178, 5-(11-fluoro-6H-pyrido[2′,3′:5,6][1,3]oxazino[3,4-a]indol-2-yl)-2-(4-fluorophenyl)-N-methyl-6-(3-methyl-2-oxoimidazolidin-1-yl)benzofuran-3-carboxamide], the IC50 is 133 nM in assay [1] (Hepatitis C virus, 96 h) and 28 nM in assay [2] (Hepatitis C virus, 96 h).

Turning to `CNC(=O)c1c(-c2ccc(F)cc2)oc2cc(N(C)S(C)(=O)=O)c(-c3cc4c(cn3)OCn3c-4cc4c(F)cccc43)cc12` [Compound 16], the IC50 in assay [1] (Hepatitis C virus, 96 h) is 2.1 nM; in assay [2] (Hepatitis C virus, 96 h), 2.3 nM.

Turning to `CNC(=O)c1c(-c2ccc(F)cc2)oc2cc(N(C)S(C)(=O)=O)c(-c3ccc4c(c3)-c3cc5ccccc5n3CC(NCCN3CCCC3)CO4)cc12` (stereo not drawn) [Compound 84], the IC50 in assay [1] (Hepatitis C virus, 96 h) came out at 26 nM; in assay [2] (Hepatitis C virus, 96 h) it was 16 nM.

Turning to `CNC(=O)c1c(-c2ccc(F)cc2)oc2cc(N(C)S(C)(=O)=O)c(-c3ccc4c(n3)-c3cc5c(F)cccc5n3C(CCO)O4)cc12` (stereo not drawn) [Compound 100, 5-(11-fluoro-6-(2-hydroxyethyl)-6H-pyrido[2′,3′:5,6][1,3]oxazino[3,4-a]indol-2-yl)-2-(4-fluorophenyl)-N-methyl-6-(N-methylmethylsulfonamido)benzofuran-3-carboxamide], the half-maximal inhibitory concentration (IC50) turned out to be 3.3 nM in assay [1] and 3.6 nM in assay [2].

As for `CNC(=O)c1c(-c2ccc(F)cc2)oc2cc(N(C)S(C)(=O)=O)c(-c3ccc4c(n3)-c3cc5cccc(CN)c5n3CO4)cc12` [Compound 69], the IC50 worked out at 57 nM in assay [1] (Hepatitis C virus, 96 h) and 45 nM in assay [2] (Hepatitis C virus, 96 h).

For `CNC(=O)c1c(-c2ccc(F)cc2)oc2cc(N(C)S(C)(=O)=O)c(-c3ccc4c(n3)-c3c(F)c5c(F)cccc5n3CO4)cc12` [Compound 59], the IC50 in assay [1] (Hepatitis C virus, 96 h) turned out to be 2.5 nM; in assay [2] (Hepatitis C virus, 96 h) it was 4.2 nM.

Consider `CCNC(=O)C1Oc2ccc(-c3cc4c(C(=O)NC)c(-c5ccc(F)cc5)oc4cc3N(C)S(C)(=O)=O)nc2-c2cc3c(F)cccc3n21` (stereo not drawn) [Compound 107], for which the IC50 was determined as 1.5 nM in assay [1] and 0.7 nM in assay [2].

For `CNC(=O)c1c(-c2ccc(F)cc2)oc2cc(N3CCOC3=O)c(-c3ncc4c(n3)-c3cc5c(F)cccc5n3CO4)cc12` [Compound 173, 5-(11-fluoro-6H-pyrimido[4′,3′:5,6][1,3]oxazino[3,4-a]indol-2-yl)-2-(4-fluorophenyl)-N-methyl-6-(2-oxooxazolidin-3-yl)benzofuran-3-carboxamide], the IC50 in assay [1] (Hepatitis C virus, 96 h) came out at 8.4 nM; in assay [2] (Hepatitis C virus, 96 h), 2.1 nM.

For the compound `CNC(=O)c1c(-c2ccc(F)cc2)oc2cc(N(C)S(C)(=O)=O)c(-c3cc4c(cn3)OC(CO)n3c-4cc4c(F)cccc43)cc12` (stereo not drawn) [Compound 89], the results for the 50% inhibitory concentration (IC50) in assay [1] and in assay [2] were 1.1 nM and 0.9 nM, respectively.

With `CNC(=O)c1c(-c2ccc(F)cc2)oc2cc(N(C)S(C)(=O)=O)c(-c3cc4c(cn3)OC(CO)n3c-4cc4c(F)cccc43)cc12` (stereo not drawn) [Compound 90], the IC50 in assay [1] was 5.5 nM; in assay [2], 2.4 nM.

Regarding `CNC(=O)c1c(-c2ccc(F)cc2)oc2cc(N(C)S(C)(=O)=O)c(-c3ccc4c(n3)-c3nc5c(F)cccc5n3CO4)cc12` [Compound 139], the IC50 in assay [1] (Hepatitis C virus, 96 h) stood at 1.9 nM; in assay [2] (Hepatitis C virus, 96 h) it was 1.9 nM.

For the compound `CNC(=O)c1c(-c2ccc(F)cc2)oc2cc(N(C)S(C)(=O)=O)c(-c3ccc4c(n3)-c3cc5c(F)cccc5n3C(C)O4)cc12` (stereo not drawn) [Compound 37], the concentration for half-maximal inhibition (IC50) was 3.4 nM in assay [1] (Hepatitis C virus, 96 h) and 5.9 nM in assay [2] (Hepatitis C virus, 96 h).

Turning to `CNC(=O)c1c(-c2ccc(F)cc2)oc2cc(N(C)S(C)(=O)=O)c(-c3ccc4c(c3)-c3nc5cccc(F)c5n3CO4)cc12` [Compound 134], the IC50 in assay [1] (Hepatitis C virus, 96 h) amounted to 4 nM; in assay [2] (Hepatitis C virus, 96 h) it was 2.9 nM.

For the compound `CNC(=O)c1c(-c2ccc(F)cc2)oc2cc(-n3cn[nH]c3=O)c(-c3ccc4c(n3)-c3cc5c(F)cccc5n3CO4)cc12` [Compound 164], the IC50 in assay [1] (Hepatitis C virus, 96 h) came out at 1.7 nM; in assay [2] (Hepatitis C virus, 96 h) it was 1 nM.

With `CNC(=O)c1c(-c2ccc(F)cc2)oc2cc(N(C)S(C)(=O)=O)c(-c3ccc4c(n3)-c3cc5cc(F)cc(F)c5n3CO4)cc12` [Compound 19], the IC50 was found to be 19 nM in assay [1] (Hepatitis C virus, 96 h) and 21 nM in assay [2] (Hepatitis C virus, 96 h).

On to `CNC(=O)c1c(-c2ccc(F)cc2)oc2cc(N(C)S(C)(=O)=O)c(-c3cnc4c(n3)-c3cc5c(C#N)cccc5n3CO4)cc12` [Compound 33], for which the half-maximal inhibitory concentration (IC50) in assay [1] (Hepatitis C virus, 96 h) was found to be 0.9 nM; in assay [2] (Hepatitis C virus, 96 h), 1.2 nM.

As for `CNC(=O)c1c(-c2ccc(F)cc2)oc2cc(N(C)S(C)(=O)=O)c(-c3ccc4c(n3)-c3cc5ccc(C#N)cc5n3CO4)cc12` [Compound 22], the IC50 is 3.5 nM in assay [1] (Hepatitis C virus, 96 h) and 1.9 nM in assay [2] (Hepatitis C virus, 96 h).

For `CCNC(=O)C1Oc2ccc(-c3cc4c(C(=O)NC)c(-c5ccc(F)cc5)oc4cc3N(C)S(C)(=O)=O)nc2-c2cc3c(F)cccc3n21` (stereo not drawn) [Compound 108], the IC50 in assay [1] is 14 nM; in assay [2], 2.4 nM.

For `CN(c1cc2oc(-c3ccc(F)cc3)c(C(=O)NC3CC3)c2cc1-c1ccc2c(n1)-c1cc3c(F)cccc3n1CO2)S(C)(=O)=O` [Compound 157], the half-maximal inhibitory concentration (IC50) in assay [1] (Hepatitis C virus, 96 h) worked out at 7.6 nM; in assay [2] (Hepatitis C virus, 96 h) it was 11 nM.

For the compound `CNC(=O)c1c(-c2ccc(F)cc2)oc2cc(C(=O)OC)c(-c3ccc4c(n3)-c3cc5c(F)cccc5n3CO4)cc12` [Compound 182], the IC50 in assay [1] (Hepatitis C virus, 96 h) amounted to 24 nM; in assay [2] (Hepatitis C virus, 96 h) it was 23 nM.

Consider `CNC(=O)c1c(-c2ccc(F)cc2)oc2cc(N(C)S(C)(=O)=O)c(-c3ccc4c(n3)-c3cc5c(F)cccc5n3CO4)cc12` [Compound 2, 5-(11-fluoro-6H-pyrido[2′,3′:5,6][1,3]oxazino[3,4-a]indol-2-yl)-2-(4-fluorophenyl)-N-methyl-6-(N-methylmethylsulfonamido)benzofuran-3-carboxamide], for which the IC50 in assay [1] (Hepatitis C virus, 96 h) is 1.6 nM; in assay [2] (Hepatitis C virus, 96 h) it was 2.7 nM.

For the compound `CNC(=O)c1c(-c2ccc(F)cc2)oc2cc(N(C)S(C)(=O)=O)c(-c3nc4c(cc3OC)OCn3c-4cc4ccccc43)cc12` [Compound 29], the IC50 in assay [1] (Hepatitis C virus, 96 h) came out at 4.8 nM; in assay [2] (Hepatitis C virus, 96 h) it was 8 nM.

For `CNC(=O)c1c(-c2ccc(F)cc2)oc2cc(N(C)S(C)(=O)=O)c(-c3ccc4c(n3)-c3[nH]c5ncccc5c3CO4)cc12` [Compound 52, 5-(6,11-dihydropyrido[2″,3″:5′,6′]pyrano[3′,4′:4,5]pyrrolo[2,3-b]pyridin-2-yl)-2-(4-fluorophenyl)-N-methyl-6-[methyl(methylsulfonyl)amino]-1-benzofuran-3-carboxamide], the IC50 in assay [1] (Hepatitis C virus, 96 h) stood at 1.7 nM; in assay [2] (Hepatitis C virus, 96 h), 2.7 nM.

Consider `CNC(=O)c1c(-c2ccc(F)cc2)oc2cc(N(C)S(C)(=O)=O)c(-c3ccc4c(c3)-c3[nH]c5ccccc5c3C3(CCCC3)O4)cc12` [Compound 65], for which the half-maximal inhibitory concentration (IC50) in assay [1] (Hepatitis C virus, 96 h) was 11 nM; in assay [2] (Hepatitis C virus, 96 h), 19 nM.

For the compound `CNC(=O)c1c(-c2ccc(F)cc2)oc2cc(N(C)S(C)(=O)=O)c(-c3ccc4c(n3)-c3cc5c(F)cccc5n3C(CNC(=O)[C@@H]3CCCN3C(=O)OC)O4)cc12` (stereo partly drawn) [Compound 124, (2S)-methyl 2-(((11-fluoro-2-(2-(4-fluorophenyl)-3-(methylcarbamoyl)-6-(N-methylmethylsulfonamido)benzofuran-5-yl)-6H-pyrido[2′,3′:5,6][1,3]oxazino[3,4-a]indol-6-yl)methyl)carbamoyl)pyrrolidine-1-carboxylate], the concentration for half-maximal inhibition (IC50) was 19 nM in assay [1] and 4.5 nM in assay [2].

As to `CNC(=O)c1c(-c2ccc(F)cc2)oc2cc(N(C)S(C)(=O)=O)c(-c3nc4c(cc3F)OCn3c-4cc4c(F)cccc43)cc12` [Compound 27], the IC50 in assay [1] (Hepatitis C virus, 96 h) is 2.9 nM; in assay [2] (Hepatitis C virus, 96 h) it was 6.1 nM.

Regarding `CNC(=O)c1c(-c2ccc(F)cc2)oc2cc(N(C)S(C)(=O)=O)c(-c3ccc4c(c3)-c3cc5ccccc5n3CCO4)cc12` [Compound 42, 5-(6,7-dihydrobenzo[6,7][1,4]oxazepino[4,5-a]indol-2-yl)-2-(4-fluorophenyl)-N-methyl-6-(N-methylmethylsulfonamido)benzofuran-3-carboxamide], the IC50 in assay [1] (Hepatitis C virus, 96 h) came to 3.1 nM; in assay [2] (Hepatitis C virus, 96 h), 4.5 nM.

On to `CNC(=O)c1c(-c2ccc(F)cc2F)oc2cc(N(C)S(C)(=O)=O)c(-c3ccc4c(n3)-c3cc5c(F)cccc5n3CO4)cc12` [Compound 147, 2-(2,4-difluorophenyl)-5-(11-fluoro-6H-pyrido[2′,3′:5,6][1,3]oxazino[3,4-a]indol-2-yl)-N-methyl-6-(N-methylmethylsulfonamido)benzofuran-3-carboxamide], for which the IC50 in assay [1] (Hepatitis C virus, 96 h) came to 9 nM; in assay [2] (Hepatitis C virus, 96 h), 6.9 nM.

Turning to `CNC(=O)c1c(-c2ccc(F)cc2)oc2cc(N(CCF)S(C)(=O)=O)c(-c3ncc4c(n3)-c3cc5ccccc5n3CO4)cc12` [Compound 196], the 50% inhibitory concentration (IC50) in assay [1] (Hepatitis C virus, 96 h) is 1.8 nM; in assay [2] (Hepatitis C virus, 96 h) it was 3.6 nM.

For `CNC(=O)c1c(-c2ccc(F)cc2)oc2cc(N(C)S(C)(=O)=O)c(-c3ccc4c(n3)-c3c(Cl)c5c(F)cccc5n3CO4)cc12` [Compound 56], the IC50 in assay [1] (Hepatitis C virus, 96 h) stood at 13 nM; in assay [2] (Hepatitis C virus, 96 h), 12 nM.

On to `CNC(=O)c1c(-c2ccc(F)cc2)oc2cc(N(C)S(C)(=O)=O)c(-c3ccc4c(n3)-c3cc5c(C#N)nccc5n3CO4)cc12` [Compound 47], for which the IC50 in assay [1] (Hepatitis C virus, 96 h) turned out to be 1.2 nM; in assay [2] (Hepatitis C virus, 96 h), 1.8 nM.
